In patent US20210220368A1, “COMPOSITIONS COMPRISING TIMOLOL AND THEIR USE IN THE TREATMENT OF ROSACEA BY TOPICAL ADMINISTRATION” (Almirall, S.A., priority 2016, published 2021):

Columns and labels:
[1] = system: capsaicin-induced vasodilation; experiment: Vasodilation (erythema) induced by topical capsaicin in the ear of CD1 mice; assay type: in vivo, CD-1 mice; details: timolol 1%, brimonidine 0.33%, oxymetazoline 0.88% solutions, topical to the ear before capsaicin; peak erythema 45 min after capsaicin, Mexameter
Method: Evaluation of the Effect of Topical Timolol, Brimonidine and Oxymetazoline in Vasodilation Induced by Topical Application of Capsaicin in the Ear of CD1 Mice
Neurogenic skin inflammation was induced by capsaicin (Alacapsin 0.075% cream) on the ear of CD-1 mice. Capsaicin induces the release of neuropeptides most of which have vasodilatory properties. In this model vasodilation is evaluated with a narrowband spectrophotometer probe (Mexameter) that measures peak absorption of haemoglobin. The quantity of light absorbed by the skin is calculated as Mexameter® arbitrary units, and this measure of erythema can be considered a surrogate of vasodilation. […] Treatment effects are reported at this maximal induction of erythema.
Timolol 1%, brimonidine 0.33% and oxymetazoline 0.88% solutions were applied topically to the mouse ear before capsaicin induction.
Results described represent peak erythema of four groups of animals and are reported as mexameter arbitrary units. Each group included 6-12 animals. Numbers above the bars indicate the percentage inhibition of the corresponding group vs the capsaicin control group.

TPA-induced ear oedema [2] = details: topical brimonidine 0.2%, mice; Piwnica et al., J. Dermatol. Sci. 2014; cited from earlier work
TPA-induced ear oedema [3] = experiment: TPA-induced ear oedema model in Balb/c mice; assay type: in vivo; details: timolol 1%, brimonidine 0.2% in acetone, topical, 30 min before and 15 min after TPA; ear weight at T+6 h; p<0.005
Method: Evaluation of the Anti-Oedema Effect of Timolol and Brimonidine after Two Topical Applications in the TPA-Induced Ear Oedema Model in Balb/c Mice.
The oedema is induced by means of a single application to the right ear of the mouse of 20 μl of a solution of TPA (phorbol 12-myristate 13-acetate) in acetone at 0.01%. The test compounds are diluted in acetone and applied 30 minutes before and 15 minutes after TPA. The weight of the mouse ears is measured at T+6 h and the weight of the left ear is subtracted from the one of the right ear.
Timolol was applied at a concentration of 1% before and after TPA application. The alpha agonist, brimonidine 0.2% was also tested for comparison.
Each group included 12 animals. Numbers above the bars indicate the percentage inhibition of the corresponding group of treated animals vs the control group.

[4] = system: erythematotelangiectatic rosacea; details: topical timolol, human subjects with erythematotelangiectatic rosacea; Jaque et al., Rev. Chilena Dermatol 2012; cited from earlier work

SMILES | percentage inhibition of ear vasodilation (erythema) vs capsaicin control group [1] [%] | inhibition of TPA-induced ear oedema (TPA-induced ear oedema [2]) [%] | inhibition of ear oedema vs control group (TPA-induced ear oedema [3]) | clinical benefit [4]
Brc1c(NC2=NCCN2)ccc2nccnc12 [brimonidine] | 56 | 50 | around 50% | 
Cc1cc(C(C)(C)C)c(O)c(C)c1CC1=NCCN1 [oxymetazoline] | 60 |  |  | 
CC(C)(C)NC[C@H](O)COc1nsnc1N1CCOCC1 [timolol, (S)-1-(tert-butylamino)-3-[(4-morpholin-4-yl-1,2,5-thiadiazol-3-yl)oxy]propan-2-ol] | 44 |  | around 50% | no clinical benefit
